Format in all cases: in vivo
In experiment [1] the test system is Phaedon cochleariae (Mustard Beetle). The experiment in a line: Test 3 a): leaf disc spray test, Phaedon cochleariae larvae. To be noted: for pest or weed control at 10 ppm / mortality at 5 ppm: Phaedon cochleariae, foliar; for pest or weed control at 10 ppm: read-out: Phaedon % m 10 ppm; for mortality at 5 ppm: read-out: mortality of larvae of Phaedon cochleariae. The source says:
(§1) One or more dilutions of the compounds to be tested were made in 50% aqueous acetone.
(§2) a) Test species: Plutella xylostella (Diamond-back Moth) and Phaedon cochleariae (Mustard Beetle)
(§3) Turnip leaf discs were set in agar in petri-dishes and infected with 10 larvae (2nd instar Plutella or 3rd instar Phaedon). Four replicate dishes were assigned to each treatment and were sprayed under a Potter Tower with the appropriate test dilution. Four or five days after treatment the dishes were removed from the constant temperature (25° C.) room in which they had been held and the mean percentage mortalities of larvae were determined.

Experiment [2] has as its system Megoura viciae (Vetch Aphid). The experiment in a line: Test 3 b): spray of infested tic bean plants, Megoura viciae. To be noted: for score from 4 replicates, Megoura viciae: Test 3 method (b), application of 50 ppm, score 0-3 per replicate, maximum 12; for mortality at 50 ppm: Megoura viciae, read-out: mortality of Megoura viciae. On the procedure:
as §1
b) Megoura viciae (Vetch Aphid)
Potted tic bean plants previously infected with mixed stages of Megoura were sprayed to run-off using a laboratory turntable sprayer. Treated plants were held in a greenhouse for 2 days and were assessed for aphid mortality using a scoring system, judging the response in comparison with plants treated with 50% aqueous acetone alone, as controls.

The subject of experiment [3] is Plutella xylostella (Diamond-back Moth). Description: whole plant or invertebrate. To be noted: foliar; for mortality at 500 ppm: read-out: mortality of larvae of Plutella xylostella.
Description: as §1, §2, §3

The mark [4] stands for this setting: Tables 1-3, % mortality at 10 ppm.

Read-outs that look alike come from different tables or passages of the source.

The term mortality denotes the percentage killed.

Turning to “5-Amino-3-chlorodifluoromethyl-1-(2,6-dichloro-4-trifluoromethylphenyl)-4-cyanopyrazole [Compound 128]”, in experiment [1] (setting [4]), the “Phaedon % m 10 ppm” value stood at 100%. The “score from 4 replicates, Megoura viciae” value in experiment [2] came out at 12.

Take “5-Amino-3-chlorofluoromethyl-4-cyano-1-(2,6-dichloro-4-trifluoromethylphenyl)pyrazole [Compound 166]”: the “score from 4 replicates, Megoura viciae” value in experiment [2] amounted to 12.

For `Cc1nn(-c2c(Cl)cc(C(F)(F)F)cc2Cl)c(N)c1C#N` [Compound 112, 5-Amino-4-cyano-1-(2,6-dichloro-4-trifluoromethylphenyl)-3-methylpyrazole], the pest or weed control at 10 ppm in experiment [1] worked out at 98%. Further, in experiment [2], the mortality at 50 ppm worked out at 100% and the “score from 4 replicates, Megoura viciae” value is listed as 12.

In the case of `CCSNc1c(C#N)c(C)nn1-c1c(Cl)cc(C(F)(F)F)cc1Cl` [Compound 117, 4-Cyano-1-(2,6-dichloro-4-trifluoromethylphenyl)-3-methyl-5-ethanesulphenylaminopyrazole], in experiment [1], the pest or weed control at 10 ppm worked out at 68%. The “Megoura score/12 at 10 ppm” value in experiment [2] (Table 3, value marked +: score at 10 ppm) is given as 10+.

On to `CCOC(=O)Nc1c(C#N)c(C(F)(F)F)nn1-c1c(Cl)cc(C(F)(F)F)cc1Cl` [Compound 149, 4-Cyano-1-(2,6-dichloro-4-trifluoromethylphenyl)-5-ethoxycarbonylamino-3-trifluoromethylpyrazole], for which the mortality at 500 ppm in experiment [3] (Test 3 method (a), application of 500 ppm) came out at 100%. In experiment [1], the pest or weed control at 10 ppm turned out to be 100%.

As for `Cc1c(C#N)c(C(F)(F)F)nn1-c1c(Cl)cc(C(F)(F)F)cc1Cl` [Compound 152, 4-Cyano-1-(2,6-dichloro-4-trifluoromethylphenyl)-5-methyl-3-trifluoromethylpyrazole], in experiment [3], the mortality at 500 ppm amounted to 100%. Also, in experiment [1], the pest or weed control at 10 ppm was found to be 100%.

Regarding `CN(C)S(=O)(=O)c1c(C(F)(F)F)nn(-c2c(Cl)cc(C(F)(F)F)cc2Cl)c1N` [Compound 153, 5-Amino-1-(2,6-dichloro-4-trifluoromethylphenyl)-4-(N,N-dimethylsulphamoyl)-3-trifluoromethylpyrazole], in experiment [1], the pest or weed control at 10 ppm was found to be 100%. In experiment [2] (Tables 1 and 3, 50 ppm, sum of scores 0-3 of 4 replicates), the “Megoura score/12 50 ppm” value came out at 11.

`N#Cc1c(C(F)(F)C(F)(F)C(F)(F)F)nn(-c2c(Cl)cc(C(F)(F)F)cc2Cl)c1N` [Compound 155, 5-Amino-4-cyano-1-(2,6-dichloro-4-trifluoromethylphenyl)-3-heptafluoropropylpyrazole]: the pest or weed control at 500 ppm in experiment [3] (Tables 1-2, % mortality at 500 ppm, read-out: Plutella % m 500 ppm) was found to be 96%. In addition, in experiment [1] (setting [4]), the pest or weed control at 10 ppm was determined as 100%.

Take `N#Cc1nn(-c2c(Cl)cc(SC(F)(F)F)cc2Cl)c(N)c1C#N` [Compound 156, 5-Amino-3,4-dicyano-1-(2,6-dichloro-4-trifluoromethylthiophenyl)pyrazole]: in experiment [2], the mortality at 50 ppm amounted to 100% and the “score from 4 replicates, Megoura viciae” value is given as 12.

On to `Cc1nn(-c2c(Cl)cc(C(F)(F)F)cc2Cl)c(N)c1S(C)(=O)=O` [Compound 161, 5-Amino-1-(2,6-dichloro-4-trifluoromethylphenyl)-4-methanesulphonyl-3-methylpyrazole], for which, in experiment [1], the mortality at 5 ppm was 100%. In addition, in experiment [2], the mortality at 50 ppm was found to be 100% and the “score from 4 replicates, Megoura viciae” value came to 12.

With `N#Cc1c(C(F)(F)F)nn(-c2c(Cl)cc(SC(F)(F)F)cc2Cl)c1N` [Compound 165, 5-Amino-4-cyano-1-(2,6-dichloro-4-trifluoromethylthiophenyl)-3-trifluoromethylpyrazole], in experiment [1], the mortality at 5 ppm came to 100%. Further, in experiment [2], the mortality at 50 ppm amounted to 100% and the “score from 4 replicates, Megoura viciae” value was found to be 12.

Turning to `CC(C)(C)C(=O)Nc1c([N+](=O)[O-])c(C(F)(F)F)nn1-c1c(Cl)cc(C(F)(F)F)cc1Cl` [Compound 178, 1-(2,6-Dichloro-4-trifluoromethylphenyl)-4-nitro-3-trifluoromethyl-5-trimethylacetylaminopyrazole], the mortality at 500 ppm in experiment [3] came out at 100%. Moreover, the mortality at 5 ppm in experiment [1] was 100%.

For the compound `CCOC(=O)Nc1c([N+](=O)[O-])c(C(F)(F)F)nn1-c1c(Cl)cc(C(F)(F)F)cc1Cl` [Compound 179, 1-(2,6-Dichloro-4-trifluoromethylphenyl)-5-ethoxycarbonylamino-4-nitro-3-trifluoromethylpyrazole], in experiment [3], the mortality at 500 ppm turned out to be 100%. The mortality at 5 ppm in experiment [1] is 100%.

`CCOC(=O)Nc1c(S(C)(=O)=O)c(C(F)(F)F)nn1-c1c(Cl)cc(C(F)(F)F)cc1Cl` [Compound 187, 1-(2,6-Dichloro-4-trifluoromethylphenyl)-5-ethoxycarbonylamino-4-methanesulphonyl-3-trifluoromethylpyrazole]: the mortality at 500 ppm in experiment [3] worked out at 100%. The mortality at 5 ppm in experiment [1] was determined as 100%.

Regarding `CCOC(=O)Nc1c(C#N)c(C#N)nn1-c1c(Cl)cc(C(F)(F)F)cc1Cl` [Compound 188, 1-(2,6-Dichloro-4-trifluoromethylphenyl)-3,4-dicyano-5-ethoxycarbonylaminopyrazole], the mortality at 500 ppm in experiment [3] came out at 100%. The mortality at 5 ppm in experiment [1] stood at 100%.

Consider `Cc1nn(-c2c(Cl)cc(C(F)(F)F)cc2Cl)c(N)c1I` [Compound 190, 5-Amino-1-(2,6-dichloro-4-trifluoromethylphenyl)-4-iodo-3-methylpyrazole], for which, in experiment [2], the mortality at 50 ppm is 100% and the “score from 4 replicates, Megoura viciae” value is 12.

Regarding `Cc1nn(-c2c(Cl)cc(C(F)(F)F)cc2Cl)c(N)c1[N+](=O)[O-]` [Compound 191, 5-Amino-1-(2,6-dichloro-4-trifluoromethylphenyl)-3-methyl-4-nitropyrazole], in experiment [2], the mortality at 50 ppm was determined as 100% and the “score from 4 replicates, Megoura viciae” value is on record as 12.

Consider `O=[N+]([O-])c1cn(-c2c(Cl)cc(C(F)(F)F)cc2Cl)nc1C(F)(F)F` [Compound 193, 1-(2,6-Dichloro-4-trifluoromethylphenyl)-4-nitro-3-trifluoromethylpyrazole], for which, in experiment [3], the mortality at 500 ppm was found to be 100%. In experiment [1], the mortality at 5 ppm is 100%.

On to `N#Cc1cn(-c2c(Cl)cc(C(F)(F)F)cc2Cl)nc1[N+](=O)[O-]` [Compound 200, 1-(2,6-Dichloro-4-trifluoromethylphenyl)-4-cyano-3-nitropyrazole], for which, in experiment [2], the mortality at 50 ppm was 100% and the “score from 4 replicates, Megoura viciae” value is 12.

For `N#Cc1nn(-c2c(Cl)cc(C(F)(F)F)cc2Cl)c([N+](=O)[O-])c1C#N` [Compound 201, 1-(2,6-Dichloro-4-trifluoromethylphenyl)-3,4-dicyano-5-nitropyrazole], in experiment [2], the mortality at 50 ppm is 100% and the “score from 4 replicates, Megoura viciae” value was found to be 12.

On to `CC(C)(C)[Si](C)(C)c1c(C#N)c(C(F)(F)F)nn1-c1c(Cl)cc(C(F)(F)F)cc1Cl` [Compound 206, 5-tert.-Butyldimethylsilyl-4-cyano-1-(2,6-dichloro-4-trifluoromethylphenyl)-3-trifluoromethylpyrazole], for which the mortality at 5 ppm in experiment [1] was determined as 100%. In addition, in experiment [2], the mortality at 50 ppm was 100% and the “score from 4 replicates, Megoura viciae” value is on record as 12.

For the compound `CSc1c(C#N)c(C(F)(F)F)nn1-c1c(Cl)cc(C(F)(F)F)cc1Cl` [Compound 207, 4-Cyano-1-(2,6-dichloro-4-trifluoromethylphenyl)-5-methylthio-3-trifluoromethylpyrazole], in experiment [3], the mortality at 500 ppm came to 100%. For the same compound, in experiment [1], the mortality at 5 ppm is 100%.

Turning to `COC(=O)Nc1c(C#N)c(C(F)(F)F)nn1-c1c(Cl)cc(C(F)(F)F)cc1Cl` [Compound 212, 4-Cyano-1-(2,6-dichloro-4-trifluoromethylphenyl)-5-methoxycarbonylamino-3-trifluoromethylpyrazole], the mortality at 500 ppm in experiment [3] is 100%. Besides, in experiment [1], the mortality at 5 ppm came out at 100%.

As for `C[S+]([O-])c1c(C(F)(F)F)nn(-c2c(Cl)cc(C(F)(F)F)cc2Cl)c1N` (stereo not shown) [Compound 216, 5-Amino-1-(2,6-dichloro-4-trifluoromethylphenyl)-4-methylsulphinyl-3-trifluoromethylpyrazole], the mortality at 500 ppm in experiment [3] was 100%. For the same compound, the mortality at 5 ppm in experiment [1] amounted to 100%.

In the case of `CC[S+]([O-])c1c(C(F)(F)F)nn(-c2c(Cl)cc(C(F)(F)F)cc2Cl)c1N` (stereo not shown) [Compound 217, 5-Amino-1-(2,6-dichloro-4-trifluoromethylphenyl)-4-ethylsulphinyl-3-trifluoromethylpyrazole], the mortality at 5 ppm in experiment [1] stood at 100%. In experiment [2], the mortality at 50 ppm was found to be 100% and the “score from 4 replicates, Megoura viciae” value was determined as 12.

Turning to `CCSc1c(C)nn(-c2c(Cl)cc(C(F)(F)F)cc2Cl)c1N` [Compound 225, 5-Amino-1-(2,6-dichloro-4-trifluoromethylphenyl)-4-ethylthio-3-methylpyrazole], in experiment [2], the mortality at 50 ppm came to 100% and the “score from 4 replicates, Megoura viciae” value was 12.

As for `CSc1c(C(F)(F)F)nn(-c2c(Cl)cc(C(F)(F)F)cc2Cl)c1N` [Compound 229, 5-Amino-1-(2,6-dichloro-4-trifluoromethylphenyl)-4-methylthio-3-trifluoromethylpyrazole], the mortality at 500 ppm in experiment [3] came to 100%. In addition, in experiment [1], the mortality at 5 ppm was found to be 100%.

For the origin of these results see US6372774B1, “Derivatives of N-phenylpyrazoles” (Rhone-Poulenc Agriculture Ltd., priority 1985, dated 2002).
